From patent publication US20110263610A1, “COMPOUNDS AND COMPOSITIONS AS ITPKB INHIBITORS” (IRM LLC, priority 2008, published 2011)

Target: T1, ITPKb (Mus musculus, UniProt B2RXC2)
T1 construct: murine ITPKb residues 640-942; MGSDKIHHHHHH (His6 tag from MH4 plasmid) (N); made in house; host or cells: Escherichia coli HK100
T1 sequence (B2RXC2 640-942): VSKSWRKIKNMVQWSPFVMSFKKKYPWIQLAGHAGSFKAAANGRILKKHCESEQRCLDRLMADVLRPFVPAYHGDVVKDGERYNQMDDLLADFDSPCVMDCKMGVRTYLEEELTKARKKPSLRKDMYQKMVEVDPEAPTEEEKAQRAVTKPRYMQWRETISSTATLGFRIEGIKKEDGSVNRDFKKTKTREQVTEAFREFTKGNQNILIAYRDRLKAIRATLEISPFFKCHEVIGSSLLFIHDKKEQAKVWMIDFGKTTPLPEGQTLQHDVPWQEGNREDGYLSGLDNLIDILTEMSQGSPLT
Experiment: Biochemical measurement of ITPKb activity (Kinase-Glo ATP depletion assay); inhibiting the phosphorylation of IP3 to IP4
Parameters: species or system murine
Conditions: Table 1; inhibiting the phosphorylation of IP3 to IP4; read-out: IC50
Experimental: Compounds of the present invention are assayed to measure their capacity to inhibit ITPKb according to the following assays.
The DNA sequence encoding murine ITPKb residues 640-942 is amplified from a full-length construct in mammalian expression vector pKDNZ by PCR. The 3′-primer incorporates a stop codon and an overhanging PacI site. The product is digested with Pad before being ligated into the MH4 plasmid which has been prepared by digestion with PmlI and PacI. Cloning into the MH4 plasmid adds the sequence MGSDKIHHHHHH to the N-terminus of the translated region. Mutant enzymes are made by site-directed mutagenesis using the Stratagene Quikchange kit.
ITPKb is expressed in the HK100 strain of Escherichia coli. Typically, a 4 L batch of cells is grown in LB with […] ampicillin to 0.5 A600 at 30 degrees C., before induction with 0.02% L-arabinose for 6 hours. Cells are harvested by centrifugation, and pellets are resuspended in 50 mL of 50 mM Tris (pH 8), 100 mM NaCl, 1 mM TCEP, and 0.1 mg/mL lysozyme, with 1 Complete protease inhibitor tablet (Roche). Cells are disrupted by sonication, and debris is removed by centrifugation for 40 minutes at 35000 g.
Initial purification is performed using three nickel-Sepharose Hi-Trap HP 1 mL columns (Amersham) connected in series. After application of the pellet supernatants, the bound material is washed with 20 mM Tris (pH 8.0), 20 mM imidazole, 10% glycerol (v/v), and 1 mM TCEP before elution with an imidazole gradient up to 200 mM.
Fractions containing ITPKb are identified by SDS-PAGE, and the pure fractions are concentrated and buffer exchanged using centriprep 20 15 kDa columns into 20 mM Tris (pH 8), 200 mM KCl, 5 mM MgCl2, 0.5 mM DTT, 10% glycerol, 1 μM IP3, and 20 μM ATP to a final protein concentration of 7 mg/mL.
ITPKb activity is determined using the Kinase-Glo (Promega) ATP depletion assay. The assay reaction buffer consists of 50 mM Tris (pH 8.0), 100 mM NaCl, 1 mM DTT, 10% glycerol, 5 mM MgCl2, 1 μM ATP, and 10 μM IP3 (Alexis Biochemicals). 50 nl of inhibitor is then added to each 40 μL reaction followed by a 10 μL addition of purified ITPKb (final concentration of 60 nM). The reaction mixture is incubated for 60 minutes at room temperature and stopped by the addition of an equal volume of kinase-glo reagent (Promega). Luminescence is measured using a Molecular Devices Acquest instrument.

| Compound | IC50 |
| --- | --- |
| C[C@@H]1CN(Cc2c[nH]nc2C2CCNCC2)CCN1c1ccc(C(F)(F)F)cn1 [Example 48] | 431 nM |
| C[C@@H]1CN(Cc2c[nH]nc2-c2cc(C(=O)O)co2)CCN1c1ccc(C(F)(F)F)cn1 [Example 52] | 1040 nM |
| C[C@@H]1CN(Cc2c[nH]nc2C(=O)Nc2n[nH]cc2C#N)CCN1c1ccc(C(F)(F)F)cn1 [Example 33] | > 10000 nM |
| NC(=O)c1c[nH]c(-c2n[nH]cc2CN2CCN(c3ccc(C(F)(F)F)cn3)[C@H](C(F)(F)F)C2)c1 [Example 51] | 2 nM |
| C[C@@H]1CN(Cc2c[nH]nc2-c2cc(C(N)=O)co2)CCN1c1ccc(C(F)(F)F)cn1 [Example 53] | 78 nM |
| C[C@@H]1CN(Cc2c[nH]nc2C(=O)Nc2nc[nH]c2C#N)CCN1c1ccc(C(F)(F)F)cn1 [Example 30] | > 10000 nM |
| C[C@@H]1CN(Cc2c[nH]nc2/C=C2\NC(=S)NC2=O)CCN1c1ccc(C(F)(F)F)cn1 [Example 46] | > 10000 nM |
| CC(=O)N1CC=C(c2n[nH]cc2CN2CCN(c3ccc(C(F)(F)F)cn3)[C@H](C)C2)CC1 [Example 47] | 66 nM |
| Cc1cc(NC(=O)c2n[nH]cc2CN2CCN(c3ccc(C(F)(F)F)cn3)[C@H](C)C2)n(CCN(C)C)n1 [Example 32] | 6190 nM |
| CC(O)CNC(=O)c1c[nH]c(-c2n[nH]cc2CN2CCN(c3ccc(C(F)(F)F)cn3)[C@H](C)C2)c1 (some centres unmarked) [Example 43] | 14 nM |

More lines, now with the values ahead:

| IC50 | Compound |
| --- | --- |
| 11 nM | C[C@@H]1CN(Cc2c[nH]nc2-c2ccc3cnccc3c2)CCN1c1ccc(C(F)(F)F)cn1 [Example 20] |
| 14 nM | C[C@@H]1CN(Cc2c[nH]nc2-c2cc(C(=O)NCCO)c[nH]2)CCN1c1ccc(C(F)(F)F)cn1 [Example 42] |
| 182 nM | C[C@@H]1CN(Cc2c[nH]nc2-c2c[nH]c3ncccc23)CCN1c1ccc(C(F)(F)F)cn1 [Example 44] |
| 2450 nM | C[C@@H]1CN(Cc2c[nH]nc2-c2nc3cc(C#N)ccc3[nH]2)CCN1c1ccc(C(F)(F)F)cn1 [Example 28] |

Same assay, conditions: Table 2; inhibiting the phosphorylation of IP3 to IP4; read-out: IC50

| IC50 | Compound |
| --- | --- |
| 531 nM | C[C@@H]1CN(Cc2c[nH]nc2C=C2NC(=O)NC2=O)CCN1c1ccc(C(F)(F)F)cn1 [Example 17, R-5-((4-((3-methyl-4-(5-(trifluoromethyl)pyridin-2-yl)piperazin-1-yl)methyl)-1H-pyrazol-3-yl)methylene)imidazolidine-2,4-dione] |
| 449 nM | C[C@@H]1CN(Cc2c[nH]nc2C(=O)Nc2ccncc2)CCN1c1ccc(C(F)(F)F)cn1 [Example 18, (R)-4-((3-methyl-4-(5-(trifluoromethyl)pyridin-2-yl)piperazin-1-yl)methyl)-N-(pyridin-4-yl)-1H-pyrazole-3-carboxamide] |
| 192 nM | C[C@@H]1CN(Cc2c[nH]nc2-c2cc3ccccc3[nH]2)CCN1c1ccc(C(F)(F)F)cn1 [Example 8, (R)-2-(4-((3-methyl-4-(5-(trifluoromethyl)pyridin-2-yl)piperazin-1-yl)methyl)-1H-pyrazol-3-yl)-1H-indole] |

| Compound | IC50 |
| --- | --- |
| C[C@@H]1CN(Cc2c[nH]nc2C2=CCNCC2)CCN1c1ccc(C(F)(F)F)cn1 [Example 9, (R)-2-methyl-4-((3-(1,2,3,6-tetrahydropyridin-4-yl)-1H-pyrazol-4-yl)methyl)-1-(5-(trifluoromethyl)pyridin-2-yl)piperazine] | 278 nM |

Same assay, conditions: read-out: IC50 in inhibiting the phosphorylation of IP3 to IP4

| IC50 | Compound |
| --- | --- |
| 6 nM | C[C@@H]1CN(Cc2c[nH]nc2-c2c[nH]c(C#N)c2)CCN1c1ccc(C(F)(F)F)cn1 [Example 6, (R)-4-(4-((3-methyl-4-(5-(trifluoromethyl)pyridin-2-yl)piperazin-1-yl)methyl)-1H-pyrazol-3-yl)-1H-pyrrole-2-carbonitrile] |
| 28 nM | C[C@@H]1CN(Cc2c[nH]nc2-c2ccc(C(N)=O)[nH]2)CCN1c1ccc(C(F)(F)F)cn1 [Example 5, (R)-5-(4-((3-methyl-4-(5-(trifluoromethyl)pyridin-2-yl)piperazin-1-yl)methyl)-1H-pyrazol-3-yl)-1H-pyrrole-2-carboxamide] |
